Structures can show the parent of a compound that is named as a salt.
System: imDAPs
Assay: imDAP maturation, cell morphology and adhesion (bright-field)
Assay type: cell-based, human
Settings: 10 μM Y27632; coating 1 μg/cm^2 for each; day 7
Experimental: were produced according to the method described in CN201910169525.0, and expanded as described in Example 10. The expanded […] were seeded on VTN-coated (1 μg/cm^2) plates at a density of 5×10^5 cells/cm^2 (Day 0), and cultured in the maturation medium ([…]) supplemented with 1 μM IWR1. MM-P used in Example 11 contained the following components: NeurobasalTM medium, 1% (v/v) Glutamax, 0.5 mM Db-cAMP sodium salt, 200 μM ascorbic acid, 20 ng/ml BDNF, 20 ng/ml GDNF, 1 ng/ml TGF-β3, 10 μM DAPT, hPLT (0.5%, 1%, 2%). MM-H used in Example 11 contained the following components: NeurobasalTM medium, 1% (v/v) Glutamax, 0.5 mM Db-cAMP sodium salt, 200 μM ascorbic acid, 20 ng/ml BDNF, 20 ng/ml GDNF, 1 ng/ml TGF-β3, […], HhPLT (0.5%, 1%, 2%). MM-B used in Example 11 contained the following components: Neurobasal, 1% (v/v) Glutamax, 0.5 mM Db-cAMP sodium salt, 200 μM ascorbic acid, 20 ng/ml BDNF, 20 ng/ml GDNF, 1 ng/ml TGF-β 3, 10 μM DAPT, 2% (v/v) B27 (50×) (as control). The above HhPLT was produced from hPLT as follows. The hPLT was centrifuged at 3000 g for 30 min at 4° C. to obtain the supernatant, which was heated to 56° C. for 30 min. […] Cells were collected and counted by Vi-cell cytometer. The cells were analyzed by RT-qPCR for EN1, LMX1A, FOXA2, NURR1, SOX6 and TH gene expression. […]

## C[C@@H](N)[C@H]1CC[C@H](C(=O)Nc2ccncc2)CC1 [Y27632, (R)-(+)-trans-4-(1-aminoethyl)-N-(4-pyridyl) cyclohexanecarboxamide dihydrochloride]
  cell adhesion and growth in maturation media supplemented with Y27632 (FIG. 8A): could promote cell adhesion at a certain degree

— US20240327787A1, “CULTURE MEDIUM, COATING MATRIX AND METHOD FOR EXPANDING MIDBRAIN DOPAMINERGIC PROGENITOR CELLS” (NUWACELL BIOTECHNOLOGIES CO., LTD., priority 2022, published 2024)
